Publication PMC8305101, “Synthesis and Cytotoxicity Evaluation of Spirocyclic Bromotyrosine Clavatadine C Analogs” (Marine Drugs, 2021)
Values joined by “and” are separate entries in the source; they are usually repeats but may differ in a detail not shown here. Equal values may be shown once. Where a name gives a salt, the structure may show the parent alone. Read-outs that look alike come from different tables or passages of the source.

Tests used:
[1] = tested on: human malignant melanoma A-375 cell line; experiment: Cytotoxicity in A-375 melanoma cells (CellTiter-Glo ATP viability); format: cell-based; details: for cytotoxicity at 50 µM / CC50: Homo sapiens; for CC50: read-out: CC50 (µM) in A-375 Cells; for Selectivity Index (SI): ratio of CC50 values between Hs27 fibroblasts and A-375 melanoma cells, SD in parentheses
Procedure: (§1) Analysis of selectivity to cancer cells. The cells were seeded to white frame and clear bottom 96-well plates (Perkin Elmer) at a density of 10,000 cells/well for the human malignant melanoma A-375 cell line (ATCC CRL-1619) and 7500 cells/well for the human skin fibroblast Hs27 cell line (ATCC CRL-1634). The cells were grown at 37 °C, 5% CO2 until they reached 70–80% confluence (approximately 24 h). Stock solutions of test compounds and a positive control (camptothecin, Sigma-Aldrich, St. Louis, MO, USA) were prepared in DMSO and diluted into the assay medium (growth medium with 5% FBS) to the final concentration. Final DMSO concentration was 0.5% in all samples. The culture medium was removed from the plate and compounds added, 200 µL/well. After a 48-h incubation, the amount of ATP, which is directly proportional to the number of viable cells present in culture, was quantified using CellTiter-Glo® Luminescent Cell Viability kit (Promega, Madison, WI, USA), according to manufacturer’s instructions. Origin Graphing and Analysis, version 9.55 (OriginLab, Northampton, MA, USA), was used for determination of CC50 values. The cancer cell selectivity index was calculated as a ratio of CC50 values between Hs27 fibroblasts and A-375 melanoma cells. Standard deviation of selectivity indices was calculated using Equation (1) (1) σ(x¯/y¯)=(σ(x)/x¯)^2+(σ(y)/y¯)^2

[2] = Cytotoxicity in Hs27 normal skin fibroblasts (CellTiter-Glo ATP viability); format: cell-based; details: human, 48-h incubation, mean (SD) of 2–3 independent experiments in triplicate
Procedure: as §1

[3] = tested on: caspases 3/7 in A-375 cells; experiment: Apoptosis induction assay, caspase-3/7 activity (ApoTox-Glo) in A-375 cells; format: cell-based, human; details: 1 × CC50 concentration
Procedure: Apoptosis induction assay and imaging. A-375 cells were seeded to white 96-well plates and treated with compounds at 1 × CC50 concentration, 100 µL/well, following the procedure described above. After 24 and 48 h, caspase-3/7 activity was measured using the ApoTox-Glo kit (Promega) following the manufacturer’s instructions. The light microscopy images were taken using 4× phase contrast objective and Cytation5 automated imaging reader (Biotek).

[4] = tested on: A549 (lung) cancer cell line; parameters: method as in doi:10.1016/j.tetlet.2016.10.019; details: cited from earlier work
[5] = tested on: MCF7 (breast) cancer cell line; parameters: method as in doi:10.1016/j.tetlet.2016.10.019; details: cited from earlier work
[6] = tested on: MDA-MB-231 (breast) cancer cell line; parameters: method as in doi:10.1016/j.tetlet.2016.10.019; details: cited from earlier work
[7] = tested on: Malme-3M melanoma cell line; parameters: method as in PMID 32228987; details: Malme-3M melanoma cells; cited from earlier work
[8] = tested on: breast cancer cell line MCF-7; parameters: method as in PMID 32228987; details: MCF-7 breast cancer cells; cited from earlier work
[9] = tested on: Mel-Juso melanoma cell line; parameters: method as in PMID 32228987; details: Mel-Juso melanoma cells; cited from earlier work
[10] = tested on: SKMel-147 melanoma cell line; parameters: method as in PMID 32228987; details: SKMel-147 melanoma cells; cited from earlier work
[11] = 50 µM, A-375 cells, 48-h incubation, single experiment with three technical replicates, read-out: Primary Test Results (Cytotoxicity % at 50 µM in A-375 Cells)
[12] = A-375 cells, 48-h incubation, mean (SD) of 2–3 independent experiments in triplicate
[13] = A-375, 48 h, read-out: Primary Test Results (Cytotoxicity % at 50 µM in A-375 Cells), 50 µM, A-375 cells, 48-h incubation, single experiment with three technical replicates
[14] = read-out: CC50 (µM) in Hs27 Cells

## CC[C@@]1(O)C(=O)OCc2c1cc1n(c2=O)Cc2cc3ccccc3nc2-1 [Camptothecin, reference compound]
[1]; [11]
  cytotoxicity at 50 µM: 94.7%
[1]; [12]
  CC50: 0.05 µM
[1]
  Selectivity Index (SI): 70.9 (0.5)
[2]; Hs27 skin fibroblast cells
  CC50 at 48 h: 3.6 µM
[3]; 24 h
  Caspase 3/7 induction, fold change relative to DMSO-treated control: ~20 fold
[3]; 48 h
  Caspase 3/7 induction, fold change relative to DMSO-treated control: nearly fivefold

## N=C(N)NCCCCNC(=O)C1=NOC2(C=C(Br)C(=O)C(Br)=C2)C1 [Compound 1-TFA, 7,9-Dibromo-N-(4-guanidinobutyl)-8-oxo-1-oxa-2-azaspiro[4.5]deca-2,6,9-triene-3-carboxamide]
[1]; 50 µM, A-375 cells, 48-h incubation, single experiment with three technical replicates
  Primary Test Results (Cytotoxicity % at 50 µM in A-375 Cells): less than 25% and 0.5%
[4]
  Activity against A549 cancer cell line: moderate activity
[5]
  Activity against MCF7 cancer cell line: moderate activity
[6]
  Activity against MDA-MB-231 cancer cell line: moderate activity

## O=C1C=CC2(C=C1)CC(C(=O)NCCc1ccccn1)=NO2 [Compound 32, 8-Oxo-N-[2-(pyridin-2-yl)ethyl]-1-oxa-2-azaspiro[4.5]deca-2,6,9-triene-3-carboxamide]
[1]; A-375, 48 h
  CC50: 1.5 µM
[1]; [13]
  cytotoxicity at 50 µM: 97.5%
[1]
  Selectivity Index (SI): 1.5 (0.9)
[2]; [14]
  CC50 at 48 h: 2.2 µM

## O=C(NCCc1ccccn1)C1=NOC2(C=C(Br)C(=O)C(Br)=C2)C1 [Compound 33, 7,9-Dibromo-8-oxo-N-[2-(pyridin-2-yl)ethyl]-1-oxa-2-azaspiro[4.5]deca-2,6,9-triene-3-carboxamide]
[1]; A-375, 48 h
  CC50: 3.6 µM
[1]; [13]
  cytotoxicity at 50 µM: 98.9%
[1]
  Selectivity Index (SI): 1.9 (0.6)
[2]; [14]
  CC50 at 48 h: 6.6 µM

## O=C(NCCc1cccnc1)C1=NOC2(C=C(Br)C(=O)C(Br)=C2)C1 [Compound 34, 7,9-Dibromo-8-oxo-N-[2-(pyridin-3-yl)ethyl]-1-oxa-2-azaspiro[4.5]deca-2,6,9-triene-3-carboxamide]
[1]; A-375, 48 h
  CC50: 5.1 µM
[1]; [13]
  cytotoxicity at 50 µM: 97%
[1]
  Selectivity Index (SI): 1.7 (0.6)
[2]; [14]
  CC50 at 48 h: 8.8 µM

## O=C1C=CC2(C=C1)CC(C(=O)NCc1cccnc1)=NO2 [Compound 35, 8-Oxo-N-(pyridin-3-ylmethyl)-1-oxa-2-azaspiro[4.5]deca-2,6,9-triene-3-carboxamide]
[1]; A-375, 48 h
  CC50: 1.1 µM
[1]; [13]
  cytotoxicity at 50 µM: 97.5%
[1]
  Selectivity Index (SI): 2.3 (0.1)
[2]; [14]
  CC50 at 48 h: 2.5 µM

## O=C(NCc1cccnc1)C1=NOC2(C=C(Br)C(=O)C(Br)=C2)C1 [Compound 36, 7,9-Dibromo-8-oxo-N-(pyridin-3-ylmethyl)-1-oxa-2-azaspiro[4.5]deca-2,6,9-triene-3-carboxamide]
[1]; A-375, 48 h
  CC50: 3.4 µM
[1]; [13]
  cytotoxicity at 50 µM: 101%
[1]
  Selectivity Index (SI): 1.8 (0.2)
[2]; [14]
  CC50 at 48 h: 6.1 µM

## O=C1C=CC2(C=C1)CC(C(=O)NNC(=O)c1ccccn1)=NO2 [Compound 37, 8-Oxo-N’-picolinoyl-1-oxa-2-azaspiro[4.5]deca-2,6,9-triene-3-carbohydrazide]
[1]; A-375, 48 h
  CC50: 2.5 µM
[1]; [13]
  cytotoxicity at 50 µM: 89.3%
[1]
  Selectivity Index (SI): 2.4 (0.3)
[2]; [14]
  CC50 at 48 h: 6 µM

## O=C(NNC(=O)c1ccccn1)C1=NOC2(C=C(Br)C(=O)C(Br)=C2)C1 [Compound 38, 7,9-Dibromo-8-oxo-N’-picolinoyl-1-oxa-2-azaspiro[4.5]deca-2,6,9-triene-3-carbohydrazide]
[1]; A-375, 48 h
  CC50: 12.3 µM
[1]; [13]
  cytotoxicity at 50 µM: 93.5%
[1]
  Selectivity Index (SI): 0.5 (0.5)
[2]; [14]
  CC50 at 48 h: 6.4 µM

## Cn1nc(-c2ccc(Cl)cc2)cc1NC(=O)C1=NOC2(C=CC(=O)C=C2)C1 [Compound 40, N-[3-(4-Chlorophenyl)-1-methyl-1H-pyrazol-5-yl]-8-oxo-1-oxa-2-azaspiro[4.5]deca-2,6,9-triene-3-carboxamide]
[1]; A-375, 48 h
  CC50: 0.5 µM
[1]; [13]
  cytotoxicity at 50 µM: 99.9%
[1]
  Selectivity Index (SI): 1.0 (0.8)
[2]; [14]
  CC50 at 48 h: 0.5 µM

## Cn1nc(-c2ccc(Cl)cc2)cc1NC(=O)C1=NOC2(C=C(Br)C(=O)C(Br)=C2)C1 [Compound 41, 7,9-Dibromo-N-[3-(4-chlorophenyl)-1-methyl-1H-pyrazol-5-yl]-8-oxo-1-oxa-2-azaspiro[4.5]deca-2,6,9-triene-3-carboxamide]
[1]; A-375, 48 h
  CC50: 1.3 µM
[1]; [13]
  cytotoxicity at 50 µM: 97.6%
[1]
  Selectivity Index (SI): 1.1 (0.8)
[2]; [14]
  CC50 at 48 h: 1.4 µM

## O=C(Nc1nc2c(s1)CCCC2)C1=NOC2(C=C(Br)C(=O)C(Br)=C2)C1 [Compound 42, 7,9-Dibromo-8-oxo-N-(4,5,6,7-tetrahydrobenzo[d]thiazol-2-yl)-1-oxa-2-azaspiro[4.5]deca-2,6,9-triene-3-carboxamide]
[1]; A-375, 48 h
  CC50: 3.5 µM
[1]; [13]
  cytotoxicity at 50 µM: 97.5%
[1]
  Selectivity Index (SI): 1.3 (0.5)
[2]; [14]
  CC50 at 48 h: 4.4 µM

## CNCCCOc1c(Br)cc(CCNC(=O)/C(Cc2cc(Br)c(OC)c(Br)c2)=N/O)cc1Br [Purpurealidin I 3, Purpurealidin I, reference compound]
[1]; [11]
  cytotoxicity at 50 µM: 98.9%
[1]; [12]
  CC50: 3.7 µM
[1]
  Selectivity Index (SI): 1.3 (0.1)
[2]; Hs27 skin fibroblast cells
  CC50 at 48 h: 4.7 µM

## COC1=C(Br)[C@H](O)[C@@]2(C=C1Br)CC(C(=O)NCC(O)COc1c(Br)cc(C(O)CNC(=O)C3=NO[C@]4(C=C(Br)C(OC)=C(Br)[C@@H]4O)C3)cc1Br)=NO2 (stereo partly shown) [isofistularin-3]
[7]
  Effect on cell viability: no significant decrease
[8]
  Effect on cell viability: reduced cell viability
[9]
  Effect on cell viability: no significant decrease
[10]
  Effect on cell viability: no significant decrease
